pEC50: −log10 of the molar value. Read-outs that look alike come from different tables or passages of the source.
Tests used:
[1] = test system: subgenomic Con1 (GT1b) replicon in Huh-7 cells; conditions: 0.25, 0.5 or 1 μM, 7 passages with drug then 3 passages without; HCV RNA by RT-qPCR
Method: Cells were grown until they reached 90% confluence, trypsinized and re-seeded at the same cell concentration in a new 10-cm dish with the same drug concentration. […] Then drugs were removed to allow viral replication rebound to occur. At each passage, sample of cells were collected, RNA extracted according to the manufacturer's instructions and analyzed by RT-PCR for HCV RNA levels.
Fig 3 Replicon clearance, replication rebound and resistance analyses. […] Then drugs were removed to allow viral replication rebound to occur. At each passage, samples of cells were collected, RNA extracted and analyzed by RT-PCR for HCV RNA levels. B. Emergence of resistance: Con1 replicon Huh-7 cells were passaged 22 times in the absence or presence of STG-175 or selected DAAs. At each passage, sample of cells were collected, RNA extracted and analyzed by RT-PCR for HCV RNA levels. C. […] Data are expressed as number of HCV RNA copies per cell. […] Data are expressed as mean of relative light units and calculated EC50s are presented. […] E. Degree of resistance of D320E and Y321N Con1 variants: Left panel. Wild-type (WT), D320E and D320/Y321N NS5A Con1 RNA were electroporated into Huh7.5.1 cells and replication monitored over 8 days by quantifying the levels of intracellular HCV RNA. Right panel. Same as just above except that increasing concentrations of STG-175 were added at the time of the electroporation. […]

[2] = test system: wild-type Con1 GT1b replicon; assay: Electroporated Con1 RNA replication in Huh7.5.1 cells (RT-qPCR), wild-type; format: cell-based; conditions: Hepatitis C virus
From the text: (§1) The GT1b subgenomic firefly luciferase reporter replicon pFK-I389/NS3–3 was provided by R. Bartenschlager. The GT1B subgenomic NS3, NS5A and NS5B mutants were created via homologous recombination using the In-Fusion HD Cloning kit (Clontech) as we described previously. […] The in vitro transcription of wild-type and mutant Con1 RNA was accomplished using the T7 MEGAscript kit (Ambion) by following the manufacturer’s instructions. In vitro-transcribed RNAs were introduced into Huh7.5.1 cells by electroporation. Trypsinized cells were washed twice and resuspended in phosphate-buffered saline (PBS) (calcium-free and magnesium-free) at 1x 10^7 cells per ml. Ten micrograms of RNA for each mutant was mixed with 0.4 mL of cells in a 4-mm cuvette, and a Bio-Rad Gene Pulser system was used to deliver a single pulse at 0.27 kV, 100 ohms, and 960 μF. Cells were then plated in 12-well dishes. RNA transfection efficiency and HCV subgenomic replication were assessed by reverse transcription-quantitative PCR (RT-qPCR) and presented as genome equivalents (GE) per microgram of total RNA as described previously. We measured by RT-qPCR the replication of wild-type, STG-175-, NS5Ai-, NS3i- and NS5Bi-resistant mutants in the presence of increasing concentrations of SGT-175, daclatasvir, telaprevir, boceprevir and sofosbuvir over a period of 8 days.
Fig 3 Replicon clearance, replication rebound and resistance analyses. […] Then drugs were removed to allow viral replication rebound to occur. At each passage, samples of cells were collected, RNA extracted and analyzed by RT-PCR for HCV RNA levels. B. Emergence of resistance: Con1 replicon Huh-7 cells were passaged 22 times in the absence or presence of STG-175 or selected DAAs. At each passage, sample of cells were collected, RNA extracted and analyzed by RT-PCR for HCV RNA levels. C. […] Data are expressed as number of HCV RNA copies per cell. […] Data are expressed as mean of relative light units and calculated EC50s are presented. […] E. Degree of resistance of D320E and Y321N Con1 variants: Left panel. Wild-type (WT), D320E and D320/Y321N NS5A Con1 RNA were electroporated into Huh7.5.1 cells and replication monitored over 8 days by quantifying the levels of intracellular HCV RNA. Right panel. Same as just above except that increasing concentrations of STG-175 were added at the time of the electroporation. […] STG-175 is taken as the substance from the printed x-axis title 'STG-175 in Log nM'.
To determine whether the D320E and Y321N substitutions truly render HCV resistant to STG-175, they were introduced into wild-type Con1 replicon as we described previously. Introduction of the substitutions was verified by sequencing. In vitro-transcribed wild-type, D320E and D320E/Y321N HCV RNAs were then electroporated into Huh7.5.1 cells and viral replication assessed by RT-qPCR and presented as GE per microgram of total RNA as we described previously. […] We then analyzed the replication of wild-type, D320E and D320E/Y321N in the presence of increasing concentrations of SGT-175 over a period of 8 days.
Fig 5 Cross-resistance analyses.

[3] = test system: NS3i-resistant R155Q/A156T NS3 Con1 GT1b replicon; assay: Electroporated Con1 RNA replication in Huh7.5.1 cells (RT-qPCR), R155Q/A156T NS3; format: cell-based; conditions: Hepatitis C virus, Huh-7.5.1, 192 h, read-out: EC50 R155Q/A156T NS3
From the text: as §1, with “Cells were then plated in 12-well dishes.” left out
Fig 5 Cross-resistance analyses. […] Data are expressed as log of GE/μg of total RNA. […]

For `CC=CCC(C)C(O)C1C(=O)NC(CC)C(=O)N(C)C(CSCCCCO)C(=O)N(C)C(CC(C)(C)O)C(=O)NC(C(C)C)C(=O)N(C)C(CC(C)C)C(=O)NC(C)C(=O)NC(C)C(=O)N(C)C(CC(C)C)C(=O)N(C)C(CC(C)C)C(=O)N(C)C(C(C)C)C(=O)N1C` (centres unmarked) [STG-175], the “viral replication rebound after drug removal” value [1] was “no replication rebound was observed”, the pEC50 ([2]; Huh-7.5.1, 144 h, read-out: EC50, WT replicon) was 7.45 and the pEC50 ([2]; Huh-7.5.1, 192 h, read-out: EC50, WT replicon) was 7.46. For the same compound, the pEC50 ([2]; Huh-7.5.1, 192 h, read-out: EC50 GT1b WT) was 7.97 and the pEC50 [3] was 7.87.
